Target: T1, LXRβ (Homo sapiens, UniProt P55055)
T1 construct: were made by cloning the appropriate full-length cDNAs into the pBacPakhis1 vector; poly-His (pBacPakhis1) (N); made in house; host or cells: Sf9 insect cells (baculovirus), crude lysate
Assay: Scintillation proximity assay (SPA), competition with 3H-24,25-epoxycholesterol
Assay type: binding
Settings: average Ki with respect to LXR β, read-out: Ki(b)
Protocol: The SPA assay measures the radioactive signal generated by the binding of ^3H-24,25-epoxycholesterol to LXRα or LXRβ. The basis of the assay is the use of SPA beads containing a scintillant, such that when binding to the receptor brings the labeled ligand into proximity with the bead, the energy from the label stimulates the scintillant to emit light. The light is measured using a standard microplate scintillation reader. The ability of a ligand to bind to a receptor can be measured by assessing the degree to which the compound can compete off a radiolabelled ligand with known affinity for the receptor.
1. Label: ^3H-24,25-epoxy-cholesterol (Amersham)
3. LXRβ lysate: Baculovirus expressed LXRβ/RXR heterodimer with RXR having a 6-HIS tag produced as a crude lysate
4. SPA beads: Ysi copper His-tag SPA beads (Amersham)
Baculovirus expression plasmids for human RXR α (accession No NM_002957), LXR a (accession No U22662), LXR β (accession No U07132) were made by cloning the appropriate full-length cDNAs into the pBacPakhis1 vector (Clontech, CA) following standard procedures. Insertion of the cDNAs into the pBAcPakhis1 vector polylinker created an in frame fusion to the cDNA to an N-terminal poly-His tag present in pBacPakhis1. Correct cloning was confirmed by restriction mapping, and/or sequencing.
Cell lysates were prepared by infecting healthy, Sf9 insect cells at a density of approximately 1.25×10^6/ml at 27° C., in a total volume of 500 mL per 1 L sized spinner flasks, cultured under standard conditions. To prepare LXRα lysate, insect cells were co-transfected with the LXR α expression cassette at an M.O.I of 0.5 to 0.8 and with the RXR expression cassette at a M.O.I. of approximately 1.6. To prepare LXRβ lysate, insect cells were co-transfected with the LXR β expression cassette at an M.O.I of approximately 1.6 and with the RXR expression cassette at a M.O.I. of approximately 1.6. In both cases cells were incubated for 48 hours at 27° C. with constant shaking prior to harvesting.
After incubation, cells were harvested by centrifugation and pelleted. Cell pellets were resuspended in two volumes of ice-cold freshly prepared extraction buffer (20 mM Tris pH 8.0, 10 mM Imidazole, 400 mM NaCl, containing one EDTA free protease inhibitor tablet (Roche Catalog No: 1836170) per 10 ml of extraction buffer).
Cells were homogenized slowly on ice using a Douncer to achieve 80-90% cell lysis. The homogenate was centrifuged in a pre-chilled rotor (Ti50 or Ti70, or equivalent) at 45,000 rpm for 30 minutes at 4° C. Aliquots of the supernatant were frozen on dry ice and stored frozen at −80° C. until quantification and quality control. Aliquots of the lysates were tested in the SPA assay to ensure lot to lot consistency, and via SDS-PAGE analysis after purification using Ni-NTA Resin (Qiagen) and adjusted for protein concentration and expression level prior to use in screening assays.
[^3H] 24,25 Epoxycholesterol (EC) solution: For a single 384-well plate (or 400 wells), 21 μL of [^3H] EC (specific activity 76.5 Ci/mmol, concentration 3.2 mCi/mL) was added to 4.4 mL of 2×SPA buffer to provide for a final concentration of 200 nM. For each additional 384-well plate, an additional 19.1 μL of [^3H] EC was added to 4.0 mL of additional 2×SPA buffer. The final concentration of [^3H] EC in the well was 50 nM.
LXRβ lysate (prepared as above) was diluted with protein lysate dilution buffer. 1400 μL of diluted LXRβ lysate was prepared per 384-well plate, ([…]) and 1120 μL of diluted LXRβ lysate was prepared for each additional 384-well plate.
SPA bead solution: For a 384-well plate (or 400 wells), 3.75 mL of 2×SPA buffer w/o EDTA, 2.25 mL of H2O, and 1.5 mL of Ysi His-tag SPA beads (vortex well before taking) were mixed together. For each additional 384-well plate, an additional 3.5 mL of 2×SPA buffer w/o EDTA, 2.1 mL of H2O, and 1.4 mL of Ysi His-tag SPA beads were mixed together. […]

T1 sequence (P19793 whole entry): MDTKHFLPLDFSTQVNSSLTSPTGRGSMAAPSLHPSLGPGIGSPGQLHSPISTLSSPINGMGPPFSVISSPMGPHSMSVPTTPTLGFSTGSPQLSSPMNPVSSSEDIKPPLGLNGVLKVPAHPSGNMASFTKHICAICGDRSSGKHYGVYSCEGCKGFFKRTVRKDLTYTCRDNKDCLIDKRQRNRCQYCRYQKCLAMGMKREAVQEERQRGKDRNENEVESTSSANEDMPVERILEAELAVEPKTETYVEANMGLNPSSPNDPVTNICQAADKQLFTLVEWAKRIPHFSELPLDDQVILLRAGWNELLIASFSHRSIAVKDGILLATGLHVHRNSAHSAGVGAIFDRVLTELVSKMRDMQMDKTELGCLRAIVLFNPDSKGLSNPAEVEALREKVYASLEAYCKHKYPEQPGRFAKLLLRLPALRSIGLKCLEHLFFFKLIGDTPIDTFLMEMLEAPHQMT
T1 sequence (P55055 whole entry): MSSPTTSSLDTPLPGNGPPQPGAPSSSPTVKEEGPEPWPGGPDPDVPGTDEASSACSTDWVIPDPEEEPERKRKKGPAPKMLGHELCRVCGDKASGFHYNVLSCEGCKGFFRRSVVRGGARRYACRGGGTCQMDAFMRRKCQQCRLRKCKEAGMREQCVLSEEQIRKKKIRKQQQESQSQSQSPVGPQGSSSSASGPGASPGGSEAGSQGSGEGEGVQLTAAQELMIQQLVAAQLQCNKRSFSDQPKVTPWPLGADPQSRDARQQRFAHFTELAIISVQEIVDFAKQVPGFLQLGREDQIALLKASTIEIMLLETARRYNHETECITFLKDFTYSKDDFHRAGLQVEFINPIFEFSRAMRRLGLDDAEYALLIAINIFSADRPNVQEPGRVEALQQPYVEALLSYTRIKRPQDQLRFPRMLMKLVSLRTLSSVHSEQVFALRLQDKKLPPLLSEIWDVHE

SMILES | Ki
Nc1ccc(-c2coc(-c3cc4cccc(Cl)c4c(=O)n3Cc3ccc(F)cc3F)c2)cc1C(F)(F)F [3-[4-(4-amino-3-trifluoromethylphenyl)furan-2-yl]-8-chloro-2-(2,4-difluorobenzyl)-2H-isoquinolin-1-one] | 10 to 150 nM
O=c1c2c(Cl)cccc2cc(-c2cc(-c3cc(C(F)(F)F)cc(C(F)(F)F)c3)co2)n1Cc1ccc(F)cc1F [3-[4-(3,5-bis-trifluoromethylphenyl)furan-2-yl]-8-chloro-2-(2,4-difluorobenzyl)-2H-isoquinolin-1-one] | 10 to 150 nM
Cc1ccc(Cn2c(-c3ccc(Oc4ccccc4)cc3)cc3cccc(C)c3c2=O)cc1 [8-methyl-2-(4-methylbenzyl)-3-(4-phenoxyphenyl)-2H-isoquinolin-1-one] | 10 to 150 nM
O=c1c2c(Cl)cccc2cc(-c2ccc(Oc3ccccc3)cc2)n1Cc1cccs1 [8-chloro-3-(4-phenoxyphenyl)-2-thiophen-2-ylmethyl-2H-isoquinolin-1-one] | 10 to 150 nM
Cc1ccc(Cn2c(-c3ccc(Oc4ccccc4)cc3)cc3ccccc3c2=O)c(C)c1 [2-(2,4-dimethylbenzyl)-3-(4-phenoxyphenyl)-2H-isoquinolin-1-one] | 10 to 150 nM
Cc1cccc(-c2cc3ccccc3c(=O)n2Cc2ccccc2)c1 [2-benzyl-3-m-tolyl-2H-isoquinolin-1-one] | > 500 nM
O=c1c2c(Cl)cccc2cc(-c2ccc(Oc3cnccn3)cc2)n1Cc1ccc(F)cc1F [8-chloro-2-(2,4-difluorobenzyl)-3-[4-(pyrazin-2-yloxy)phenyl]-2H-isoquinolin-1-one] | 10 to 150 nM
O=c1c2c(Cl)cccc2cc(-c2ccc(Oc3ccccc3)cc2)n1CC1CCCCC1 [8-chloro-2-cyclohexylmethyl-3-(4-phenoxyphenyl)-2H-isoquinolin-1-one] | 10 to 150 nM
O=c1c2c(Cl)cccc2cc(-c2ccc(Oc3ccccc3)cc2)n1Cc1ccc(F)cc1F [8-chloro-2-(2,4-difluorobenzyl)-3-(4-phenoxyphenyl)-2H-isoquinolin-1-one] | 10 to 150 nM
CCOc1ccc(-c2csc(-c3cc4cccc(Cl)c4c(=O)n3Cc3ccc(F)cc3F)c2)cc1Cl [8-chloro-3-[4-(3-chloro-4-ethoxyphenyl)thiophen-2-yl]-2-(2,4-difluorobenzyl)-2H-isoquinolin-1-one] | 150 to 500 nM
Cc1cccc(-c2cc3ccccc3c(=O)n2Cc2ccc(C)cc2C)c1 [2-(2,4-dimethylbenzyl)-3-m-tolyl-2H-isoquinolin-1-one] | 10 to 150 nM
Cc1ccc(Cn2c(-c3ccsc3)cc3ccccc3c2=O)c(C)c1 [2-(2,4-dimethylbenzyl)-3-thiophen-3-yl-2H-isoquinolin-1-one] | 150 to 500 nM
Cc1ccc(Cn2c(C#CC(C)(C)O)cc3ccccc3c2=O)c(C)c1 [2-(2,4-dimethylbenzyl)-3-(3-hydroxy-3-methylbut-1-ynyl)-2H-isoquinolin-1-one] | > 500 nM
CS(=O)(=O)c1ccc(-c2ccc(-c3cc4cccc(Cl)c4c(=O)n3Cc3ccc(F)cc3F)s2)cc1 [8-chloro-2-(2,4-difluorobenzyl)-3-[5-(4-methanesulfonylphenyl)thiophen-2-yl]-2H-isoquinolin-1-one] | 10 to 150 nM

Reference: patent US7265131B2, “Isoquinolinone derivatives and their use as therapeutic agents” (Exelixis, Inc., priority 2002, dated 2007)
